Results: paper PMC10287566, “Signaling-specific inhibition of the CB1 receptor for cannabis use disorder: phase 1 and phase 2a randomized trials” (Nature Medicine, 2023)
Where two headings read alike, the source gives them in different places.

Columns and labels:
dogs = assay: Blood pressure, heart rate, ECG and body temperature in conscious dogs (GLP); assay type: in vivo
Description: The dogs had telemetry transmitters for arterial blood pressure, body temperature and ECG measurements. The study was conducted in two parts.

[1] = target: T1, hCB1 point mutant p.E1.49G (Homo sapiens, UniProt P21554, E133G); assay: THC-induced decrease in cellular respiration, HEK293 cells with mutant hCB1; assay type: cell-based; conditions: HEK293, hCB1 p.E1.49G, THC 1 µM
T1 construct: expressed in transfected cells; host or cells: HEK293
Description: After 15 min of incubation, THC (1 µM, dissolved in ethanol 0.0034%) or vehicle was added in the culture dishes for 30 min.
Cellular respiration was measured in a calibrated oxygraph (Oxygraph-2k, Oroboros Instruments) equipped with a Clark electrode and DatLab software. Oxygen consumption (OC) rate was used to measure cellular respiration.

endogenous mouse CB1 = target: T2, endogenous mouse CB1 (Mus musculus, UniProt P47746); assay: THC-induced p-ERK1/2 in STHdhQ7/Q7 cells; assay type: cell-based; conditions: STHdhQ7/Q7, THC 10 µM; read-out: IC50, inhibition of THC-induced p-ERK1/2
T2 construct: a striatum-derived cell line that endogenously express murine CB1; host or cells: STHdhQ7/Q7

squirrel monkeys = assay: THC-induced reinstatement of THC seeking in squirrel monkeys; assay type: in vivo, Saimiri sciureus
Description: Two experimental models were used: (1) THC i.v. self-administration and (2) THC-induced reinstatement of THC seeking. These two approaches were used to model the maintenance of daily cannabis use and cannabis seeking after a period of abstinence.
For the THC-induced reinstatement of THC seeking, the monkeys underwent daily extinction sessions during which lever presses led to vehicle infusions and the visual cues previously paired with THC infusions but not THC. […] THC injections were given immediately before the start of the test sessions. During testing, lever presses (FR10) continued to produce only vehicle injections and the THC-paired cues. […] Recommendations from the Guide for the Care and Use of Laboratory Animals (8th edition) and guidelines of the Institutional Animal Care and Use Committee of the Intramural Research Program, NIDA, NIH, DHHS, were followed. Animals were maintained in facilities fully accredited by the AAALAC. Operation of the experimental chambers and data collection were controlled by IBM computers using the MED Associates MED-PC software package.

mice = assay: THC-induced catalepsy (bar test); assay type: in vivo
[2] = SAD study, plasma pharmacokinetics; assay type: in vivo; conditions: human, oral; for Cmax: read-out: Cmax, mean (±SD); for half-life: SAD, evaluated 0-144 h, underestimated, read-out: t½, min-max
Description: For both SAD and MAD studies, the PK parameters were calculated using standard non-compartmental methods for those with sufficient plasma concentration data.

[3] = Phase 2a study, plasma pharmacokinetics; assay type: in vivo, human; conditions: for Cmax: human, plasma, in the range predicted from animal data
Description: THC and its metabolites (11-OH-THC and 11-COOH-THC) were assessed at the same timepoints. […] THC and its metabolites analyses were performed using PD dataset (n = 13 for both doses).
PK parameters for AEF0117 were subject to descriptive statistics separately for each treatment group.

[4] = target: GR (glucocorticoid receptor) (Homo sapiens, UniProt P04150); assay: Eurofins binding screen; conditions: read-out: Percent inhibition of control specific binding
human CB1 = human CB1 (Homo sapiens, UniProt P21554); assay: THC-induced decrease in cAMP in CHO-hCB1 cells; assay type: cell-based; design: host or cells: CHO-K1
Description: CHO cells stably expressing the human CB1 receptor (CHO-hCB1) were used in these experiments (ES-110C, PerkinElmer).
CHO-hCB1 cells were treated by concomitantly adding THC and the test compound for 45 min. Forskolin (2.5 µM) was also simultaneously added in all the conditions tested to sustain cAMP basal level. At the end of the treatment, cells were lysed for cAMP quantification. All measures were performed in triplicate in one experiment.
The quantitative determination of cAMP was done using a competitive fluorescence immunoassay. Data were expressed as % of Δ fluorescence (ΔF) that was calculated as follows: ΔF% = (sample fluorescence − negative control fluorescence) / negative control fluorescence. These experiments were done by the CRO Fluofarma.

[5] = Reinstatement of THC self-administration

T1 sequence (P21554 whole entry E133G): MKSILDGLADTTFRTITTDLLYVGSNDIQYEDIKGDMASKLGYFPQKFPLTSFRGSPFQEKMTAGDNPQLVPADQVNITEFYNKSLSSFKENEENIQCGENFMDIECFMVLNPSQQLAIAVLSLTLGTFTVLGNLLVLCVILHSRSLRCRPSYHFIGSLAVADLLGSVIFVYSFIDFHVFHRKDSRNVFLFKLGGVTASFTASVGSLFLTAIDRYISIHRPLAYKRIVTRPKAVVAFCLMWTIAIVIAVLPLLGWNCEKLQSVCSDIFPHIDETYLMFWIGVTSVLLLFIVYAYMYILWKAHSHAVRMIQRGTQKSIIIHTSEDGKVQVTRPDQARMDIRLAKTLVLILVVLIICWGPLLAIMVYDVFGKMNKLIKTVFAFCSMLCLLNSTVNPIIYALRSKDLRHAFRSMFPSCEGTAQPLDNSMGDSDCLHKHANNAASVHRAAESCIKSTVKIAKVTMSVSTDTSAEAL
T2 sequence (P47746 whole entry): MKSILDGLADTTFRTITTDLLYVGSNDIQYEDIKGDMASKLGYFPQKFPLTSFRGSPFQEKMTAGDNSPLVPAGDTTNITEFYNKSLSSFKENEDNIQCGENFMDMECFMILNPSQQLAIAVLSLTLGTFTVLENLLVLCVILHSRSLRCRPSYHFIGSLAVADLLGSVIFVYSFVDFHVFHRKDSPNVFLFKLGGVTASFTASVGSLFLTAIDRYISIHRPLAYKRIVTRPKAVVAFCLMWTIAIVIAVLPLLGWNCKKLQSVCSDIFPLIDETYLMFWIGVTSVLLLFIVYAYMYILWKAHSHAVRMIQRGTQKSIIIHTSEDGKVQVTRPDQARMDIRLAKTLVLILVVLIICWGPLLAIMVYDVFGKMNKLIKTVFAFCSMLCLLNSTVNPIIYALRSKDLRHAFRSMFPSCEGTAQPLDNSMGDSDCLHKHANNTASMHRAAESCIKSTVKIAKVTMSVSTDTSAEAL
Chain of GR (glucocorticoid receptor) (P04150 whole entry): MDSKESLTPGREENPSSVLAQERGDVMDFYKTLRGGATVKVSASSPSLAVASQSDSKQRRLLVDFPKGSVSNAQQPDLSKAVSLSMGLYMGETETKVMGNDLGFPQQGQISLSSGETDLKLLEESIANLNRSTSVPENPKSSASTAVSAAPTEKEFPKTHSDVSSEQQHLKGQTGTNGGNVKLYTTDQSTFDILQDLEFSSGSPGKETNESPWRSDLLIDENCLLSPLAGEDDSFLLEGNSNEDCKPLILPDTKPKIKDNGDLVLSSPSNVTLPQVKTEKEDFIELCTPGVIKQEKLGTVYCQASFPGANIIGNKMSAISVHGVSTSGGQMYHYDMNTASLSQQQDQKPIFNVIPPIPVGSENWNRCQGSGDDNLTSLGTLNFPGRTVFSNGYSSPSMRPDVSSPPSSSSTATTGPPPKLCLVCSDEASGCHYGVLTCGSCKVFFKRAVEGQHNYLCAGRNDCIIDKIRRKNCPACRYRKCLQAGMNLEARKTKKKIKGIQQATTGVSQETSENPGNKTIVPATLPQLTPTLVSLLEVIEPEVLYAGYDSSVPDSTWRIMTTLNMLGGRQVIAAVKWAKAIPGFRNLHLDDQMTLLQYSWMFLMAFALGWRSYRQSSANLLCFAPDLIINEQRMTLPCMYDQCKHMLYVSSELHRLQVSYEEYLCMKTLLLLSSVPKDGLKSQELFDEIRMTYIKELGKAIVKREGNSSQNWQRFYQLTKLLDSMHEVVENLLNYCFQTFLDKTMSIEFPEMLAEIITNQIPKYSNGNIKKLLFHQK
Chain of human CB1 (P21554 whole entry): as the sequence (P21554 whole entry E133G) above, with G133E counted along it

With `COc1ccc(CO[C@H]2CC[C@@]3(C)C(=CC[C@H]4[C@@H]5CC[C@H](C(C)=O)[C@@]5(C)CC[C@@H]43)C2)cc1` [AEF0117, 3β-(4-methoxybenzyloxy)pregn-5-en-20-one] the “adverse effects on blood pressure, heart rate, ECG and body temperature” value (dogs) was “did not show any adverse effects”, the “effect on cellular respiration with mutant hCB1” value [1] was “loss of effect” and the IC50 (endogenous mouse CB1) was 0.3 µM. The “reinstatement of THC seeking” value (squirrel monkeys; 1.5 µg kg^−1 oral) was “significantly reduced”, the “% Inhibition” value (squirrel monkeys; [5]) was 80% and the ID100 (squirrel monkeys; [5]) was ≤ 1.5 µg/kg. The THC-induced catalepsy (mice) was “inhibited”, the “% Inhibition” value (mice; Catalepsy) was 50% and the ID50 (mice; Catalepsy) was 5 µg/kg. For the same compound, the ID100 (mice; Catalepsy) was 50 µg/kg, the Cmax ([2]; both sexes, SAD Day 1, 2 mg) was 14.7 ± 4.3 ng/mL and the Tmax ([2]; both sexes, SAD Day 1, 2 mg, read-out: tmax, median (range)) was 3 h. For the same compound, the half-life ([2]; both sexes, 0.6 mg) was 75.9 to 229 h, the Tmax ([2]; healthy volunteers, read-out: Tmax) was ~3 h and the Cmax ([2]; SAD Day 1, 0.2 mg) was 1.3 ± 0.3 ng/mL. For the same compound, the Tmax ([2]; SAD Day 1, 0.2 mg, read-out: tmax, median (range)) was 3 h, the Cmax ([2]; SAD Day 1, 0.6 mg) was 3.5 ± 1 ng/mL and the Tmax ([2]; SAD Day 1, 0.6 mg, read-out: tmax, median (range)) was 2.5 h. It also gave a Cmax ([2]; SAD Day 1, 6 mg) of 38.6 ± 8.1 ng/mL, a Tmax ([2]; SAD Day 1, 6 mg, read-out: tmax, median (range)) of 2 h and a half-life ([2]; 2 mg) of 84.4 to 180 h. The half-life ([2]; 6 mg) was 69.3 to 162 h, the Tmax ([2]; healthy volunteers, SAD and MAD, read-out: median tmax) was 2 to 3 h and the “plasma concentration below LLOQ after washout” value ([3]; 0.06 mg first, >=14 d later, 3 participants) was 0.0002 to 0.0093 ng/mL. The “mean concentration 24 h after 5th dose higher than 24 h after 1st dose” value ([3]; Phase 2a, 0.06 and 1 mg) was 30-50%, the Cmax ([3]; 0.06 mg) was ≥ 0.15 ng/mL and the Cmax ([3]; 1 mg) was ≥ 1.5 ng/mL. The inhibition at 10 µM [4] was 22% and the “effect on THC's effects on cAMP” value (human CB1) was “without modifying”.
